The source of these data is patent US20240158370A1, “CK1 alpha AND DUAL CK1 alpha / GSPT1 DEGRADING COMPOUNDS” (Innovo Therapeutics, Inc., priority 2022, published 2024).

In general, DC50 refers to the concentration at which degradation of the target reaches its halfway point.

One assay has as its target T1, CK1α (Homo sapiens, UniProt P48729+Q96SW2).
T1 construct: CSNK1A1-HiBit KI HEK293(LgBit) Cells; host or cells: HEK293(LgBit) knock-in cells
Description: HiBiT degradation assay, CK1α, Procedure A. Particulars: six hours incubation. Type of assay: cell-based. The procedure:
(§1) Compounds were spotted onto Cornin 384-Well, Cell Culture-Treated, Flat-Bottom, Low Flange Microplate (Fisher Scientific, Catalog #07-201-013) using a Tecan D300e digital dispenser. Ten-point dose response curves spanning from 10 μM to 0.005 μM with a 0.1% DMSO tolerance were used.
(§2) Cells were dissociated from tissue 182 cm^2 Tissue Culture Flask (CellTreat Catalog #229351) by washing the cells with PBS (Fisher Scientific Catalog #BP3994) followed by dissociation with Trypsin-EDTA (0.25%) (Thermo Scientific Catalog #25200056). Trysin was neutralized and cells were resuspended with DMEM+10% FBS. Cells were centrifuged for 5 minutes at 1200 RPMs. Cell culture media was aspirated off and cells were resuspended with DMEM+10% FBS. Cell density was determined using a Denovix CellDrop BF cell counter. Cell density was adjusted to 1×10^6 cells/ml. 40 μl of cells was added to compound treated tissue culture plates and incubated for six hours at 37° C. After six hours, cell culture plates were removed from tissue culture incubator and cooled to room temperature. 40 μl of Nano-GloHiBiT Lytic Detection Reagent (Promega, Catalog #N3040) was added to each well. Plates were placed on an orbital shaker (600 rpm) for 20 minutes. Luminescence was measured using an Envsion plate reader (Perkin Elmer). DC50 curves and Ymin were generated using a 4-parameter curve fit with GraphPad Prism software (Prism Corporation).
(§3) Results from the HiBiT assay (DC50 (nM) and Ymin (% remaining)) are shown below. All CK1α data was generated according to Procedure A. GSPT1 data for Examples 1-600, 603-620 and 703-705 was generated according to Procedure A. GSPT1 data for Examples 601, 621-702 and 706-735 was generated according to Procedure B.
(The HiBiT peptide binds its large partner to form an active luciferase.)

Another assay addresses GSPT1 (Homo sapiens, UniProt P15170+Q96SW2). The assay is described as follows: HiBiT degradation assay, GSPT1, Procedure A. Type of assay: cell-based. Details: HiBit-GSPT1 KI HEK293(LgBit) Cells; host or cells: HEK293(LgBit) knock-in cells. Particulars: six hours incubation. How it is done: as §1, §2, §3

Chain of GSPT1 (P15170 whole entry): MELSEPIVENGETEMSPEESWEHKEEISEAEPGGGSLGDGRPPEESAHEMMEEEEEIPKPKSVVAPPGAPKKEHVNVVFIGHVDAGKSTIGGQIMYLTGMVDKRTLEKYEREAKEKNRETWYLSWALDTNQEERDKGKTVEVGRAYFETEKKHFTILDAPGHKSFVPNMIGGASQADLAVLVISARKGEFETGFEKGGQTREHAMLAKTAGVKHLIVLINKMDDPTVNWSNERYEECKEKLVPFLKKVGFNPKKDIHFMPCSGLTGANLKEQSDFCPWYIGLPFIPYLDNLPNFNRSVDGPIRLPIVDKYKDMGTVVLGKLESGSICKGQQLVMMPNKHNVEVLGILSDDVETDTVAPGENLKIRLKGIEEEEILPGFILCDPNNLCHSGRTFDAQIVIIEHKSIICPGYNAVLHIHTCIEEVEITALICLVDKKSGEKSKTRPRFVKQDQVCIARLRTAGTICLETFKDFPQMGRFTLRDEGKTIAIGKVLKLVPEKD
Chain of GSPT1 (Q96SW2 whole entry): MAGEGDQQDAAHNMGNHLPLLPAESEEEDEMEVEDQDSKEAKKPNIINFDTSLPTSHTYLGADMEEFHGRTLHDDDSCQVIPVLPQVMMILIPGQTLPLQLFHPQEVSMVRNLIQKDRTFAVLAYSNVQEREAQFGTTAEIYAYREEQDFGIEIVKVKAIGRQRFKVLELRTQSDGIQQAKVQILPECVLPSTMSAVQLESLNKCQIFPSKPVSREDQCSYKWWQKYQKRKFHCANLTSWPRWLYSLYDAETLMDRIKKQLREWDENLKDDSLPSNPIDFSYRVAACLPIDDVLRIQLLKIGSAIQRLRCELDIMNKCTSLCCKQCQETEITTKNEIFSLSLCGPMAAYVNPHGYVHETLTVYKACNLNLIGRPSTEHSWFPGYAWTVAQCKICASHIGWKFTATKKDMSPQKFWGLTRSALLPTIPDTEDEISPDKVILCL
Chain of GSPT1 (Q16531 whole entry partner): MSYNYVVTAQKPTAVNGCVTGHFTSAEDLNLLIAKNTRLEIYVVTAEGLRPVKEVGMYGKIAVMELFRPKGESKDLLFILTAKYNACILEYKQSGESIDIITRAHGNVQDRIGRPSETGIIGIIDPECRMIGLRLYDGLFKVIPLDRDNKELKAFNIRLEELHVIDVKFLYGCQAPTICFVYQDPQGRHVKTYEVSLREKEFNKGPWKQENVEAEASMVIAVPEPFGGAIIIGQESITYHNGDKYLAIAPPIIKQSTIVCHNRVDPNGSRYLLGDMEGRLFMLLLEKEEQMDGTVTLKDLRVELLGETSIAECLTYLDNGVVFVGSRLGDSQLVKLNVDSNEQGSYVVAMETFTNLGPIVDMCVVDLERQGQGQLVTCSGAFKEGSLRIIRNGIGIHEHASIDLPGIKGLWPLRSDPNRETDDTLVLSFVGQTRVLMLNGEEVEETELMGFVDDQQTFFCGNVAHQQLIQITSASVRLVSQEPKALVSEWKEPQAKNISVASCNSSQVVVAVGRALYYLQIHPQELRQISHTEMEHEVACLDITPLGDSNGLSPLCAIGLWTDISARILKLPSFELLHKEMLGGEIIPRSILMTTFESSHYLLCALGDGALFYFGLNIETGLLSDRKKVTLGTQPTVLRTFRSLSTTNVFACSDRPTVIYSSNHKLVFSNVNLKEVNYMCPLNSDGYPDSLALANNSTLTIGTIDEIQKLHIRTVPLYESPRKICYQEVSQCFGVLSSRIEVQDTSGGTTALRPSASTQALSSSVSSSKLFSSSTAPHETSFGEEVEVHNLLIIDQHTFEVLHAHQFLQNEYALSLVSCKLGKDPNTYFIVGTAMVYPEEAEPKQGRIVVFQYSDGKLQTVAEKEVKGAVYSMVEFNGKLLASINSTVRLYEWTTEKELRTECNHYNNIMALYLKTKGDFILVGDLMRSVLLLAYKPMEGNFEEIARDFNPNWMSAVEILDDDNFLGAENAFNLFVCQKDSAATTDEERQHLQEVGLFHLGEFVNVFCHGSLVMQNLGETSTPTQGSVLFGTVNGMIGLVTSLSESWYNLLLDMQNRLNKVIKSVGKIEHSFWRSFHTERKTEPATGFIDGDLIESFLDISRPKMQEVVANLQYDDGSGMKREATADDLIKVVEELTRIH
T1 sequence (P48729 whole entry): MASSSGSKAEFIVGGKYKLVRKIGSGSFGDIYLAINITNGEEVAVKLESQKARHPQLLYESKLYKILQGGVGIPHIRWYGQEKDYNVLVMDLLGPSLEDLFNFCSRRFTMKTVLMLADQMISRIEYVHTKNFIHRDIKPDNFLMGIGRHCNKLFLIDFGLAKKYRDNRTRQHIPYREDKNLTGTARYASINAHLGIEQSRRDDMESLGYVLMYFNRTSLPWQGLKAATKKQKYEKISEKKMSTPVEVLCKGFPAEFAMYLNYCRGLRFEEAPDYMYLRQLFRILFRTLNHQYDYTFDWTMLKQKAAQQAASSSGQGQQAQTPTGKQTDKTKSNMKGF
T1 sequence (Q96SW2 whole entry): as the sequence (Q96SW2 whole entry) above
T1 sequence (Q16531 whole entry partner): as the sequence (Q16531 whole entry partner) above

Take `CC(C)Cn1cnc(-c2ccc3c(c2)CN(C2CCC(=O)NC2=O)C3=O)c1-c1ccccc1` (stereo not drawn) [Example 22, 3-(5-(1-Isobutyl-5-phenyl-1H-imidazol-4-yl)-1-oxoisoindolin-2-yl)piperidine-2,6-dione]: at CK1α, the “CK1α Ymin” value is “C (C = 0-10% remaining)” and the half-maximal degradation concentration (DC50) is less than 25 nM. Further, at GSPT1, the DC50 was less than 25 nM and the “GSPT1 Ymin” value was “E (E = >25-75% remaining)”.

Consider `O=C1CCC(N2Cc3cc(-c4ncsc4-c4ccccc4)ccc3C2=O)C(=O)N1` (stereo not drawn) [Example 23, 3-(1-Oxo-5-(5-phenylthiazol-4-yl)isoindolin-2-yl) piperidine-2,6-dione], for which, on CK1α, the “CK1α Ymin” value is recorded as “D (D = >10- 25% remaining)” and the DC50 was less than 25 nM. Besides, on GSPT1, the half-maximal degradation concentration (DC50) is no less than 25 nM and the “GSPT1 Ymin” value is “E (E = >25-75% remaining)”.

On to `Cn1cnc(-c2ccc3c(c2)CN([C@@H]2CCC(=O)NC2=O)C3=O)c1-c1ccc(F)cc1` [Example 24, (R)-3-(5-(5-(4-fluorophenyl)-1-methyl-1H-imidazol-4-yl)-1-oxoisoindolin-2-yl) piperidine-2,6-dione], for which, on CK1α, the “CK1α Ymin” value is “C (C = 0-10% remaining)” and the DC50 was less than 25 nM. At GSPT1, the DC50 was no less than 25 nM and the “GSPT1 Ymin” value is “E (E = >25-75% remaining)”.

On to `CCn1cnc(-c2ccc3c(c2)CN(C2CCC(=O)NC2=O)C3=O)c1-c1ccccc1` (stereo not drawn) [Example 26, 3-(5-(1-Ethyl-5-phenyl-1H-imidazol-4-yl)-1-oxoisoindolin-2-yl)piperidine-2,6-dione], for which, at CK1α, the “CK1α Ymin” value is given as “C (C = 0-10% remaining)” and the DC50 was less than 25 nM. Further, on GSPT1, the 50% degradation concentration (DC50) was less than 25 nM and the “GSPT1 Ymin” value was “E (E = >25-75% remaining)”.

Turning to `O=C1CCC(N2Cc3cc(-c4cnn(C(F)F)c4-c4ccccc4)ccc3C2=O)C(=O)N1` (stereo not drawn) [Example 27, 3-(5-(1-(difluoromethyl)-5-phenyl-1H-pyrazol-4-yl)-1-oxoisoindolin-2-yl)piperidine-2,6-dione], on CK1α, the “CK1α Ymin” value is “D (D = >10- 25% remaining)” and the DC50 is less than 25 nM. In addition, on GSPT1, the 50% degradation concentration (DC50) was no less than 25 nM and the “GSPT1 Ymin” value is on record as “F (F = >75-100% remaining)”.

Regarding `Cn1c(-c2ccc3c(c2)CN(C2CCC(=O)NC2=O)C3=O)cnc1-c1ccccc1` (stereo not drawn) [Example 28, 3-(5-(1-methyl-2-phenyl-1H-imidazol-5-yl)-1-oxoisoindolin-2-yl)piperidine-2,6-dione], at CK1α, the “CK1α Ymin” value is “E (E = >25-75% remaining)” and the DC50 was no less than 25 nM. For the same compound, at GSPT1, the DC50 was no less than 25 nM and the “GSPT1 Ymin” value is recorded as “F (F = >75-100% remaining)”.

`Cc1noc(-c2ccccc2)c1-c1ccc2c(c1)CN(C1CCC(=O)NC1=O)C2=O` (stereo not drawn) [Example 29, 3-(5-(3-Methyl-5-phenylisoxazol-4-yl)-1-oxoisoindolin-2-yl)piperidine-2,6-dione]: at CK1α, the “CK1α Ymin” value is given as “F (F = >75-100% remaining)” and the DC50 was no less than 25 nM. At GSPT1, the half-maximal degradation concentration (DC50) is no less than 25 nM and the “GSPT1 Ymin” value is “F (F = >75-100% remaining)”.

In the case of `Cc1n[nH]c(-c2ccccc2)c1-c1ccc2c(c1)CN(C1CCC(=O)NC1=O)C2=O` (stereo not drawn) [Example 30, 3-(5-(3-Methyl-5-phenyl-1H-pyrazol-4-yl)-1-oxoisoindolin-2-yl) piperidine-2,6-dione], at CK1α, the “CK1α Ymin” value was “E (E = >25-75% remaining)” and the 50% degradation concentration (DC50) was no less than 25 nM. Further, at GSPT1, the DC50 was no less than 25 nM and the “GSPT1 Ymin” value is on record as “F (F = >75-100% remaining)”.

With `O=C1CCC(N2Cc3cc(-c4sncc4-c4ccccc4)ccc3C2=O)C(=O)N1` (stereo not drawn) [Example 31, 3-(1-Oxo-5-(4-phenylisothiazol-5-yl)isoindolin-2-yl) piperidine-2,6-dione], on CK1α, the “CK1α Ymin” value was “E (E = >25-75% remaining)” and the DC50 was no less than 25 nM. Also, at GSPT1, the 50% degradation concentration (DC50) was no less than 25 nM and the “GSPT1 Ymin” value is “F (F = >75-100% remaining)”.
